Structures are written as SMILES.

Format in all cases: physicochemical
Series [1] is described as follows: Flowability of amino acid derivative powders in unconfined state (rotating drum, mass flow through a funnel, angle of repose). The following applies: powder, tests without confinement. As to the method: (§1) The flowability of 15 samples of amino acid powders was tested. The flowability of each powder in unconfined state was assessed by powder flow analysis in a rotating drum (“revolution analyzer”), by testing mass flow through a funnel, and by determining the angle of repose. The latter two measurements were performed according to chapter 1174 of the U.S. Pharmacopeia. The flowability of the samples at a confided state was analyzed by measurements with an annular shear cell and by using the Evolution Powder Tester device by PS Prozesstechnik GmbH, Basel. In these tests, the samples were initially densified with different pre-consolidation forces.

Series [2] in a line: Flowability of amino acid derivative powders in confined state (annular shear cell, Evolution Powder Tester, pre-consolidation). The following applies: tests with confinement, densified with pre-consolidation forces. The procedure:
as §1

A short description of series [3]: Concentration in saturated dimethyl formamide solution by analytical RP-UHPLC. The following applies: room temperature. The procedure: The concentration of the same amino acids in saturated solutions of dimethyl formamide at room temperature was determined by analytical reversed phase ultrahigh pressure liquid chromatography. The values ranged from below 200 mg/ml for Fmoc-Pro-OH over around 400 mg/ml for Fmoc-Ala-OH to above 600 mg/ml for Fmoc-Gly-OH.

On to `C[C@H](NC(=O)OCC1c2ccccc2-c2ccccc21)C(=O)O` [Fmoc-Ala-OH], for which the flowability entry in series [1] is “poor flowability parameters”; in series [2] it was “Medium values”. In addition, in series [3], the “concentration in saturated solution” value is listed as “around 400 mg/ml”.

As for `O=C(O)[C@@H]1CCCN1C(=O)OCC1c2ccccc2-c2ccccc21` [Fmoc-Pro-OH], the values for the flowability entry in series [1] and in series [2] were “poor flowability parameters” and “good flowability”, respectively. Moreover, the “concentration in saturated solution” value in series [3] is given as “below 200 mg/ml”.

For `O=C(O)CNC(=O)OCC1c2ccccc2-c2ccccc21` [Fmoc-Gly-OH], the flowability entry in series [1] is recorded as “good”; in series [2], “poor flowability”. In addition, in series [3], the “concentration in saturated solution” value is listed as “above 600 mg/ml”.

For the compound `CC(C)(C)OC(=O)NCCCC[C@H](NC(=O)OCC1c2ccccc2-c2ccccc21)C(=O)O` [Fmoc-Lys(Boc)-OH], in series [2], the flowability entry is reported as “poor flowability”.

As to `CSCC[C@H](NC(=O)OCC1c2ccccc2-c2ccccc21)C(=O)O` [Fmoc-Met-OH], the flowability result in series [1] is listed as “good flowability”.

Regarding `O=C(N[C@@H](CSC(c1ccccc1)(c1ccccc1)c1ccccc1)C(=O)O)OCC1c2ccccc2-c2ccccc21` [Fmoc-Cys(Trt)-OH], the flowability result in series [1] and in series [2] was “good flowability” throughout.

For the origin of these results see patent US20220387958A1, “APPARATUS AND METHOD FOR ITERATIVE POLYMER SYNTHESIS” (BACHEM AG, priority 2019, published 2022).
